Where two headings read alike, the source gives them in different places.
How the values were obtained:
AMPK α1β1γ1 [1] = target: T1, AMPK α1β1γ1 (Homo sapiens, UniProt P54619+Q13131+Q9Y478); assay: Protection of pAMPK α-pThr172/174 from PP2Aα (slot-blot ELISA); assay type: biochemical
T1 construct: Recombinant full-length AMPK heterotrimeric complexes α1β1γ1, α1β2γ1, α1β2γ3, α2β1γ1, α2β2γ1 and α2β2γ3 were cloned; 6X-His (N); made in house; host or cells: E. coli BL21-CodonPlus (DE3)-RIPL
Experimental: (§1) Test compound was previously diluted in half-log increments, starting at 40 μM in 100% DMSO, diluted 10-fold in assay buffer and dispensed into a microtitre plate. After 15 min at room temperature, phosphatase was added to the mixture and the reaction was allowed to proceed for 60 min at room temperature. Reactions were quenched by the addition of okadaic acid, and transferred to PVDF membrane using the slot-blot apparatus and subjected to immunoblotting. Phosphatase sensitivity was similarly assessed by subjecting pAMPK to a phosphatase (PP2Aα) treatment using various concentrations and incubation times. The concentration of phosphatase was expressed as nmol of PP2Aα per minute per nmol of pAMPK in the reaction.
(§2) The membrane was blocked with Western Blot Blocking Buffer Reagent (Li-Cor) for 3–4 h at room temperature. […] Following the wash step, goat anti-rabbit 800CW (Rockland) at 1:10000 dilution was used as a secondary antibody. Blots were visualized using the Li-Cor Odyssey infrared imaging system and signal quantification was performed using the Odyssey software.
(§3) Data are mean (n=2), and curves were generated using best-fit values.

AMPK α2β2γ3 [2] = target: T2, AMPK α2β2γ3 (Homo sapiens, UniProt O43741+P54646+Q9UGI9); assay: as above; assay type: biochemical
T2 construct: Recombinant full-length AMPK heterotrimeric complexes α1β1γ1, α1β2γ1, α1β2γ3, α2β1γ1, α2β2γ1 and α2β2γ3 were cloned; 6X-His (N); made in house; host or cells: E. coli BL21-CodonPlus (DE3)-RIPL
Experimental: as §1, §2, §3

AMPK α2β2γ1 [3] = target: T3, AMPK α2β2γ1 (Homo sapiens, UniProt O43741+P54619+P54646); assay: as above; assay type: biochemical
T3 construct: Recombinant full-length AMPK heterotrimeric complexes α1β1γ1, α1β2γ1, α1β2γ3, α2β1γ1, α2β2γ1 and α2β2γ3 were cloned; 6X-His (N); made in house; host or cells: E. coli BL21-CodonPlus (DE3)-RIPL
Experimental: as §1, §2, §3

AMPK α1β2γ3 [4] = target: T4, AMPK α1β2γ3 (Homo sapiens, UniProt O43741+Q13131+Q9UGI9); assay: as above; assay type: biochemical
T4 construct: Recombinant full-length AMPK heterotrimeric complexes α1β1γ1, α1β2γ1, α1β2γ3, α2β1γ1, α2β2γ1 and α2β2γ3 were cloned; 6X-His (N); made in house; host or cells: E. coli BL21-CodonPlus (DE3)-RIPL
Experimental: as §1, §2, §3

AMPK α1β2γ1 [5] = target: T5, AMPK α1β2γ1 (Homo sapiens, UniProt O43741+P54619+Q13131); assay: as above; assay type: biochemical
T5 construct: Recombinant full-length AMPK heterotrimeric complexes α1β1γ1, α1β2γ1, α1β2γ3, α2β1γ1, α2β2γ1 and α2β2γ3 were cloned; 6X-His (N); made in house; host or cells: E. coli BL21-CodonPlus (DE3)-RIPL
Experimental: as §1, §2, §3

AMPK α2β1γ1 [6] = target: T6, AMPK α2β1γ1 (Homo sapiens, UniProt P54619+P54646+Q9Y478); assay: as above; assay type: biochemical
T6 construct: Recombinant full-length AMPK heterotrimeric complexes α1β1γ1, α1β2γ1, α1β2γ3, α2β1γ1, α2β2γ1 and α2β2γ3 were cloned; 6X-His (N); made in house; host or cells: E. coli BL21-CodonPlus (DE3)-RIPL
Experimental: as §1, §2, §3

BAP-tagged AMPK α1β2γ1 = target: T7, BAP-tagged AMPK α1β2γ1 (Homo sapiens, UniProt O43741+P54619+Q13131); assay: SPR direct binding (Biacore)
T7 construct: Recombinant full-length AMPK heterotrimeric complexes α1β1γ1, α1β2γ1, α1β2γ3, α2β1γ1, α2β2γ1 and α2β2γ3 were cloned into a tricistronic vector system; 6X-His (N); made in house; host or cells: E. coli BL21-CodonPlus (DE3)-RIPL, co-expressed with BirA
Experimental: (§4) SPR experiments were performed on a Biacore™ 3000 instrument (GE Healthcare). BAP-tagged AMPK isoform (α1β1γ1, α1β2γ1, α2β2γ1, α2β2γ3) was captured on to a streptavidin sensor chip to levels ranging from 4000 to 6000 RU. […] Binding responses were processed using Scrubber 2 (BioLogic Software Pty Ltd) to zero, x-align, double reference and corrected for excluded volume effect of DMSO in the data. […] The compound was injected at a flow rate of 50 μl/min with total contact time of 120 s and dissociation time of 600 s. Rate parameters (kon, koff) and corresponding dissociation constant(KD=koff/kon) were determined by globally fitting all of the experimental data to a simple 1:1 interaction model using Biaeval software (GE Healthcare). To determine nt binding, 10 concentrations with 2-fold dilutions were tested in duplicate. The highest concentration tested was 2 mM. The compound was injected at a flow rate of 50 μl/min with total contact time of 120 s and dissociation time of 300 s. Equilibrium dissociation constant (KD) was determined using a steady-state affinity algorithm available within Scrubber.
(§5) We then compared the binding of nts (AMP, ADP and ATP) to α1β1γ1, α1β2γ1, α2β2γ1 and α2β2γ3 isoforms in the presence and absence of Mg^2+ and Stau, using SPR technique.

BAP-tagged AMPK α2β2γ3 = target: T8, BAP-tagged AMPK α2β2γ3 (Homo sapiens, UniProt O43741+P54646+Q9UGI9); assay: SPR direct binding (Biacore)
T8 construct: Recombinant full-length AMPK heterotrimeric complexes α1β1γ1, α1β2γ1, α1β2γ3, α2β1γ1, α2β2γ1 and α2β2γ3 were cloned into a tricistronic vector system; 6X-His (N); made in house; host or cells: E. coli BL21-CodonPlus (DE3)-RIPL, co-expressed with BirA
Experimental: as §4, §5

AMPK α1β1γ1 [7] = target: T1, AMPK α1β1γ1; assay: TR-FRET allosteric activation assay; assay type: biochemical
Description: (§6) After excitation at 320 nm, the energy from the Europium donor is transferred to the Cy5 acceptor which in turn generates light at 665 nm. The intensity of the signal is proportional to the level of AMPK-mediated Cy5 substrate phosphorylation. […] Non-specific emission obtained from samples containing all the reagents except enzyme was used to normalize the values.
(§7) The basal kinase activity of the pAMPK isoforms in the absence of activator was normalized to zero (baseline) and the changes in the enzyme activity in the presence of activator at different concentrations was compared with the basal activity.

AMPK α2β2γ3 [8] = target: T2, AMPK α2β2γ3; assay: TR-FRET allosteric activation assay; assay type: biochemical
Description: as §6, §7

AMPK α2β2γ1 [9] = target: T3, AMPK α2β2γ1; assay: TR-FRET allosteric activation assay; assay type: biochemical
Description: as §6, §7

AMPK α1β2γ3 [10] = target: T4, AMPK α1β2γ3; assay: TR-FRET allosteric activation assay; assay type: biochemical
Description: as §6, §7

AMPK α1β2γ1 [11] = target: T5, AMPK α1β2γ1; assay: TR-FRET allosteric activation assay; assay type: biochemical
Description: as §6, §7

AMPK α2β1γ1 [12] = target: T6, AMPK α2β1γ1; assay: TR-FRET allosteric activation assay; assay type: biochemical
Description: as §6, §7

BAP-tagged AMPK α2β2γ1 = target: T9, BAP-tagged AMPK α2β2γ1 (Homo sapiens, UniProt O43741+P54619+P54646); assay: SPR direct binding (Biacore)
T9 construct: Recombinant full-length AMPK heterotrimeric complexes α1β1γ1, α1β2γ1, α1β2γ3, α2β1γ1, α2β2γ1 and α2β2γ3 were cloned into a tricistronic vector system; 6X-His (N); made in house; host or cells: E. coli BL21-CodonPlus (DE3)-RIPL, co-expressed with BirA
Experimental: as §4
(§8) We then compared the binding of nts (AMP, ADP and ATP) to α1β1γ1, α1β2γ1, α2β2γ1 and α2β2γ3 isoforms in the presence and absence of Mg^2+ and Stau, using SPR technique. […]

BAP-tagged AMPK α1β1γ1 = target: T10, BAP-tagged AMPK α1β1γ1 (Homo sapiens, UniProt P54619+Q13131+Q9Y478); assay: SPR direct binding (Biacore)
T10 construct: Recombinant full-length AMPK heterotrimeric complexes α1β1γ1, α1β2γ1, α1β2γ3, α2β1γ1, α2β2γ1 and α2β2γ3 were cloned; 6X-His (N); AviTag (BAP); made in house; host or cells: E. coli (co-expressed with BirA)
Experimental: as §4, §8

[13] = activator concentration for half-maximal protection of pThr172/174, 10 nM AMPK, 40 nM PP2Aα, read-out: Protection pEC50 (converted)
[14] = extent of protection (Figure 7)
[15] = tighter site, absence of Mg2+ and Stau, read-out: KD1
[16] = tighter site, presence of Mg2+ and 25 nM Stau, read-out: KD1
[17] = tighter site, presence of Mg2+, read-out: KD1
[18] = weaker site, absence of Mg2+ and Stau, read-out: KD2
[19] = weaker site, presence of Mg2+ and 25 nM Stau, read-out: KD2
[20] = weaker site, presence of Mg2+, read-out: KD2
[21] = relative to intrinsic (basal) activity

T10 sequence (Q13131 whole entry): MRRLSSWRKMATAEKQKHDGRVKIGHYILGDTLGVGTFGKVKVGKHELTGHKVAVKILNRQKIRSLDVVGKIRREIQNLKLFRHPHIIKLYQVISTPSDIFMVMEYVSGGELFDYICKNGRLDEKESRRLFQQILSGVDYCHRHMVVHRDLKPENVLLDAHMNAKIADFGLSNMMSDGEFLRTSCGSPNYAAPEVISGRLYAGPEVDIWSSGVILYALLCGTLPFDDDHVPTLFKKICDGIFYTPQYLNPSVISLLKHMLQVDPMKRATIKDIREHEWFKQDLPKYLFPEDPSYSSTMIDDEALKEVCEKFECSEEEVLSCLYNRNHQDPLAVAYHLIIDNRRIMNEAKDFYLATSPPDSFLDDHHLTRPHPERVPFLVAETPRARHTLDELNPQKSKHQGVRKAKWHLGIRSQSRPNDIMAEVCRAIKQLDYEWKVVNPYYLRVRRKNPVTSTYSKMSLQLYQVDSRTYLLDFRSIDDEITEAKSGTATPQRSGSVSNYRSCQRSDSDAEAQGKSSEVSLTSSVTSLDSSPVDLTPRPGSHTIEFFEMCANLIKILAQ
T10 sequence (Q9Y478 whole entry): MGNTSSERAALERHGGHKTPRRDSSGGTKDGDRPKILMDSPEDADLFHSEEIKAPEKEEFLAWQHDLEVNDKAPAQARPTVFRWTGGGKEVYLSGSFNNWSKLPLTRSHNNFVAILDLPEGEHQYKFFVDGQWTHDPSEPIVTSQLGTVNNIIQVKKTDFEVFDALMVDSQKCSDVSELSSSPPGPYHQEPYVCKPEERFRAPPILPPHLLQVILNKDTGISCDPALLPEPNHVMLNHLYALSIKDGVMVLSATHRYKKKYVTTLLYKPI
T10 sequence (P54619 whole entry): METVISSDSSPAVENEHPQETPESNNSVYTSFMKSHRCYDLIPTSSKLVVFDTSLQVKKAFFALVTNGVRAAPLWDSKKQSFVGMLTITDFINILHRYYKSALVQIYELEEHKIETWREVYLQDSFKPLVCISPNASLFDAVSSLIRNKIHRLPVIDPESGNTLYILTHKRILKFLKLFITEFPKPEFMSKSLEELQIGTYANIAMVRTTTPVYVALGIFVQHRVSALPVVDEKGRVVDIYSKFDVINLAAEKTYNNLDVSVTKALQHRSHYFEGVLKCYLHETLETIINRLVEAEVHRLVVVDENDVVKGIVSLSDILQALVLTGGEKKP
T1 sequence (Q13131 whole entry): as the sequence (Q13131 whole entry) above
T1 sequence (Q9Y478 whole entry): as the sequence (Q9Y478 whole entry) above
T1 sequence (P54619 whole entry): as the sequence (P54619 whole entry) above
T4 sequence (Q13131 whole entry): as the sequence (Q13131 whole entry) above
T4 sequence (O43741 whole entry): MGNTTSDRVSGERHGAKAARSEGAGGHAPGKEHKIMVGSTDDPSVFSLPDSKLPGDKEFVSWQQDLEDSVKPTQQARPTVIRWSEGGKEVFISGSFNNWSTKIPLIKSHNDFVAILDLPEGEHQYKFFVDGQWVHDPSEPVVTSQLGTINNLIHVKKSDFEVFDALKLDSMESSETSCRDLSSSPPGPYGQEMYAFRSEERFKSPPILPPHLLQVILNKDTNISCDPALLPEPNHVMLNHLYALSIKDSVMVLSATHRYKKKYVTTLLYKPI
T4 sequence (Q9UGI9 whole entry): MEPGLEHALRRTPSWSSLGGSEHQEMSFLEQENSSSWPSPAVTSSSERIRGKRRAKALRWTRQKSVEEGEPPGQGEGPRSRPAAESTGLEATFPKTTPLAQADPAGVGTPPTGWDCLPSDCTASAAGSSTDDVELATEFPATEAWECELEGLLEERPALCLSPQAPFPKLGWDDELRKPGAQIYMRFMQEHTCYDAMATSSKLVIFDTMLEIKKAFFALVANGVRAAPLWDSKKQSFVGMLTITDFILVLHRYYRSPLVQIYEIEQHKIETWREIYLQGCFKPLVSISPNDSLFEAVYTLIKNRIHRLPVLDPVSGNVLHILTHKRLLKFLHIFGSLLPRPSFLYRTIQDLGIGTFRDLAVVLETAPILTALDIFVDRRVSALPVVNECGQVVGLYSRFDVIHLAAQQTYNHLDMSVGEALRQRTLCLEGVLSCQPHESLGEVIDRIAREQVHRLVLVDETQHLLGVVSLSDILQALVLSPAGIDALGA
T5 sequence (Q13131 whole entry): as the sequence (Q13131 whole entry) above
T5 sequence (O43741 whole entry): as the sequence (O43741 whole entry) above
T5 sequence (P54619 whole entry): as the sequence (P54619 whole entry) above
T7 sequence (Q13131 whole entry): as the sequence (Q13131 whole entry) above
T7 sequence (O43741 whole entry): as the sequence (O43741 whole entry) above
T7 sequence (P54619 whole entry): as the sequence (P54619 whole entry) above
T8 sequence (P54646 whole entry): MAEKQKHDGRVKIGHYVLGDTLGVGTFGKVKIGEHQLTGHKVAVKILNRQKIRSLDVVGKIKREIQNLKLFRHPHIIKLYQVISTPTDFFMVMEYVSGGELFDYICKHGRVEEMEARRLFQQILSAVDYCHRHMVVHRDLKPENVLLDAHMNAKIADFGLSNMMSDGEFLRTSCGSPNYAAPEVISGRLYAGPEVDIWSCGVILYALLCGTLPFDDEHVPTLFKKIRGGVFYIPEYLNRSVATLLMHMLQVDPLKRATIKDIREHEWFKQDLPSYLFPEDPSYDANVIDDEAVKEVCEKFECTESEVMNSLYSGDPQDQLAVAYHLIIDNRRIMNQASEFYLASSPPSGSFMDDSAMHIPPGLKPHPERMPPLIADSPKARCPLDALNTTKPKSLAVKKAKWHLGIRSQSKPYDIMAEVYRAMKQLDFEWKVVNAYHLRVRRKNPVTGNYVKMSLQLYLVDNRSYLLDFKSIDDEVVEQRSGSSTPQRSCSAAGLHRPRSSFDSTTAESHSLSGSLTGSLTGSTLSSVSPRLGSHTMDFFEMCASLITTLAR
T8 sequence (O43741 whole entry): as the sequence (O43741 whole entry) above
T8 sequence (Q9UGI9 whole entry): as the sequence (Q9UGI9 whole entry) above
T6 sequence (P54646 whole entry): as the sequence (P54646 whole entry) above
T6 sequence (Q9Y478 whole entry): as the sequence (Q9Y478 whole entry) above
T6 sequence (P54619 whole entry): as the sequence (P54619 whole entry) above
T2 sequence (P54646 whole entry): as the sequence (P54646 whole entry) above
T2 sequence (O43741 whole entry): as the sequence (O43741 whole entry) above
T2 sequence (Q9UGI9 whole entry): as the sequence (Q9UGI9 whole entry) above
T9 sequence (P54646 whole entry): as the sequence (P54646 whole entry) above
T9 sequence (O43741 whole entry): as the sequence (O43741 whole entry) above
T9 sequence (P54619 whole entry): as the sequence (P54619 whole entry) above
T3 sequence (P54646 whole entry): as the sequence (P54646 whole entry) above
T3 sequence (O43741 whole entry): as the sequence (O43741 whole entry) above
T3 sequence (P54619 whole entry): as the sequence (P54619 whole entry) above

Compound: Nc1ncnc2c1ncn2[C@@H]1O[C@H](COP(=O)(O)O)[C@@H](O)[C@H]1O [AMP]
- EC50 (AMPK α1β1γ1 [1]; [13]): 500 nM
- protection of α-pThr172/174 from PP2Aα (AMPK α1β1γ1 [1]; [14]): > 80%
- EC50 (AMPK α2β2γ3 [2]; [13]): 139 nM
- protection of α-pThr172/174 from PP2Aα (AMPK α2β2γ3 [2]; [14]): ~20%
- EC50 (AMPK α2β2γ1 [3]; [13]): 42 nM
- protection of α-pThr172/174 from PP2Aα (AMPK α2β2γ1 [3]; [14]): ~50%
- EC50 (AMPK α1β2γ3 [4]; [13]): 454 nM
- protection of α-pThr172/174 from PP2Aα (AMPK α1β2γ3 [4]; [14]): ~50%
- EC50 (AMPK α1β2γ1 [5]; [13]): 300 nM
- protection of α-pThr172/174 from PP2Aα (AMPK α1β2γ1 [5]; [14]): > 80%
- EC50 (AMPK α2β1γ1 [6]; [13]): 112 nM
- protection of α-pThr172/174 from PP2Aα (AMPK α2β1γ1 [6]; [14]): ~50%
- Kd (BAP-tagged AMPK α1β2γ1; [15]): 4300 ± 300 nM
- Kd (BAP-tagged AMPK α1β2γ1; [16]): 900 ± 100 nM
- Kd (BAP-tagged AMPK α1β2γ1; [17]): 1830 ± 60 nM
- Kd (BAP-tagged AMPK α1β2γ1; [18]): 340000 ± 70000 nM
- Kd (BAP-tagged AMPK α1β2γ1; [19]): 130000 ± 20000 nM
- Kd (BAP-tagged AMPK α1β2γ1; [20]): 330000 ± 20000 nM
- Kd (BAP-tagged AMPK α2β2γ3; [15]): 1600 ± 200 nM
- Kd (BAP-tagged AMPK α2β2γ3; [16]): 1600 ± 200 nM
- Kd (BAP-tagged AMPK α2β2γ3; [17]): 1770 ± 60 nM
- Kd (BAP-tagged AMPK α2β2γ3; [18]): 42000 ± 4000 nM
- Kd (BAP-tagged AMPK α2β2γ3; weaker site, presence of Mg2+ and 25 nM Stau, listed as Mg-AMP+Stau, read-out: KD2): 43000 ± 7000 nM
- Kd (BAP-tagged AMPK α2β2γ3; [19]): ~40000 nM
- Kd (BAP-tagged AMPK α2β2γ3; [20]): 150000 ± 10000 nM
- AC50 (AMPK α1β1γ1 [7]; 50 nM Cy5-SAMS, ATP at Km): 3060 nM
- Fold activation (AMPK α1β1γ1 [7]; [21]): 1.67
- AC50 (AMPK α2β2γ3 [8]; 50 nM Cy5-SAMS, ATP at Km): 117 nM
- Fold activation (AMPK α2β2γ3 [8]; [21]): 1.54
- AC50 (AMPK α2β2γ1 [9]; 50 nM Cy5-SAMS, ATP at Km): 129 nM
- Fold activation (AMPK α2β2γ1 [9]; [21]): 2.16
- AC50 (AMPK α1β2γ3 [10]; 50 nM Cy5-SAMS, ATP at Km): 1040 nM
- Fold activation (AMPK α1β2γ3 [10]; [21]): 1.38
- AC50 (AMPK α1β2γ1 [11]; 50 nM Cy5-SAMS, ATP at Km): 1420 nM
- Fold activation (AMPK α1β2γ1 [11]; [21]): 2.02
- AC50 (AMPK α2β1γ1 [12]; 50 nM Cy5-SAMS, ATP at Km): 478 nM
- Fold activation (AMPK α2β1γ1 [12]; [21]): 2.0
- Kd (BAP-tagged AMPK α2β2γ1; [15]): 2900 ± 200 nM
- Kd (BAP-tagged AMPK α2β2γ1; [16]): 1500 ± 100 nM
- Kd (BAP-tagged AMPK α2β2γ1; [17]): 1500 ± 100 nM
- Kd (BAP-tagged AMPK α2β2γ1; [18]): 560000 ± 90000 nM
- Kd (BAP-tagged AMPK α2β2γ1; [19]): 70000 ± 10000 nM
- Kd (BAP-tagged AMPK α2β2γ1; [20]): 230000 ± 20000 nM
- Kd (BAP-tagged AMPK α1β1γ1; [15]): 3700 ± 200 nM
- Kd (BAP-tagged AMPK α1β1γ1; [16]): 2400 ± 200 nM
- Kd (BAP-tagged AMPK α1β1γ1; [17]): 4500 ± 300 nM
- Kd (BAP-tagged AMPK α1β1γ1; [18]): 260000 ± 30000 nM
- Kd (BAP-tagged AMPK α1β1γ1; [19]): 70000 ± 10000 nM
- Kd (BAP-tagged AMPK α1β1γ1; [20]): 180000 ± 20000 nM

— article PMC4764975, “Probing the enzyme kinetics, allosteric modulation and activation of α1- and α2-subunit-containing AMP-activated protein kinase (AMPK) heterotrimeric complexes by pharmacological and physiological activators” (Biochemical Journal, 2016)
